In patent publication US12077503B2, “Substituted cyclic amides and their use as herbicides” (FMC CORPORATION, priority 2015, dated 2024):

Columns and labels:
Type in all cases: in vivo
[1] = system: Kochia (Kochia scoparia); assay: Test A preemergence; conditions: Bassia scoparia, pre-emergence, 240 h, 31 g ai/ha, Preemergence; 0 to 100 scale where 0 is no effect and 100 is complete control; read-out: Kochia plant response rating
Outline: (§1)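 Visual injury, scored on a 0–100 scale relative to untreated controls, was recorded about 10 d after application. Treatments were a preemergence soil spray over planted seeds or a postemergence spray on plants at the one- to two-leaf stage, 2 to 10 cm tall, all in loam soil–sand blend in the greenhouse.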

[2] = system: barnyardgrass (Echinochloa crus-galli); assay: Test A preemergence; conditions: Echinochloa crus-galli, pre-emergence, 240 h, 0 to 100 scale where 0 is no effect and 100 is complete control, read-out: Barnyardgrass plant response rating
Outline: as §1

[3] = system: giant foxtail (Setaria faberii); assay: Test A preemergence; conditions: Setaria faberi, pre-emergence, 240 h, 0 to 100 scale where 0 is no effect and 100 is complete control, read-out: Foxtail, Giant plant response rating
Outline: as §1

[4] = system: pigweed (Amaranthus retroflexus); assay: Test A preemergence; conditions: Amaranthus retroflexus, pre-emergence, 240 h, 0 to 100 scale where 0 is no effect and 100 is complete control, read-out: Pigweed plant response rating
[5] = system: ragweed (common ragweed, Ambrosia elatior); assay: Test A preemergence; conditions: Ambrosia artemisiifolia, pre-emergence, 240 h, 0 to 100 scale where 0 is no effect and 100 is complete control, read-out: Ragweed plant response rating
Outline: as §1

[6] = system: ryegrass, Italian (Italian ryegrass, Lolium multiflorum); assay: Test A preemergence; conditions: Lolium multiflorum, pre-emergence, 240 h, 0 to 100 scale where 0 is no effect and 100 is complete control, read-out: Ryegrass, Italian plant response rating
Outline: as §1

[7] = system: Galium (catchweed bedstraw, Galium aparine); assay: Test A postemergence; conditions: Galium, post-emergence, 240 h
Outline: as §1

[8] = system: Kochia (Kochia scoparia); assay: Test A postemergence; conditions: Bassia scoparia, post-emergence, 240 h, Postemergence, 31 g ai/ha; visual injury after approx. 10 d; 0 to 100 scale, 0 no effect, 100 complete control; read-out: Plant response rating, Kochia
Outline: as §1

[9] = system: barnyardgrass (Echinochloa crus-galli); assay: Test A postemergence; conditions: Echinochloa crus-galli, post-emergence, 240 h
Outline: as §1

[10] = system: blackgrass (Alopecurus myosuroides); assay: Test A postemergence; conditions: Alopecurus myosuroides, post-emergence, 240 h
Outline: as §1

[11] = system: corn (Zea mays); assay: Test A postemergence; conditions: Zea mays, post-emergence, 240 h
Outline: as §1

[12] = system: giant foxtail (Setaria faberii); assay: Test A postemergence; conditions: Setaria faberi, post-emergence, 240 h
Outline: as §1

[13] = system: pigweed (Amaranthus retroflexus); assay: Test A postemergence; conditions: Amaranthus retroflexus, post-emergence, 240 h
Outline: as §1

[14] = system: ragweed (common ragweed, Ambrosia elatior); assay: Test A postemergence; conditions: Ambrosia artemisiifolia, post-emergence, 240 h
Outline: as §1

[15] = system: ryegrass, Italian (Italian ryegrass, Lolium multiflorum); assay: Test A postemergence; conditions: Lolium multiflorum, post-emergence, 240 h
Outline: as §1

[16] = system: wheat (Triticum aestivum); assay: Test A postemergence; conditions: Triticum aestivum, post-emergence, 240 h
Outline: as §1

[17] = system: barnyardgrass (Echinochloa crus-galli); assay: Test B flooded paddy test; conditions: Echinochloa crus-galli, 250 g ai/ha, Flood; 0 to 100 scale where 0 is no effect and 100 is complete control; read-out: Barnyardgrass plant response rating
Outline: (§2)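 Compound goes directly into floodwater once pots are flooded 3 cm above soil, targeting plants at two leaves; the water depth is then held for the test duration. Plants sit 13–15 d in a greenhouse and are rated visually, 100 denoting complete control.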

[18] = system: ducksalad (Heteranthera limosa); assay: Test B flooded paddy test; conditions: Heteranthera limosa, 250 g ai/ha, Flood; 0 to 100 scale where 0 is no effect and 100 is complete control; read-out: Ducksalad plant response rating
Outline: as §2

[19] = system: rice (Oryra sativa); assay: Test B flooded paddy test; conditions: Oryza sativa, 250 g ai/ha, Flood; 0 to 100 scale where 0 is no effect and 100 is complete control; read-out: Rice plant response rating
Outline: as §2

[20] = system: sedge, umbrella (small-flower umbrella sedge, Cyperus difformis); assay: Test B flooded paddy test; conditions: Cyperus difformis, 250 g ai/ha, Flood; 0 to 100 scale where 0 is no effect and 100 is complete control; read-out: Sedge, Umbrella plant response rating
Outline: as §2

[21] = 125 g ai/ha, preemergence, approx. 10 d

Cc1cc([C@H]2CN(C)C(=O)[C@@H]2C(=O)Nc2ccccc2C(F)(F)F)ccc1Br [Compound 1103]
25%: pest or weed control at 250 g/ha [19]
20%: pest or weed control at 31 g/ha ([2]; 31 g ai/ha, Preemergence) | pest or weed control at 125 g/ha [5, 21] | pest or weed control at 31 g/ha ([10]; Postemergence, 31 g ai/ha, visual injury after approx. 10 d, 0 to 100 scale, 0 no effect, 100 complete control, read-out: Plant response rating, Blackgrass) | pest or weed control at 125 g/ha ([15]; 125 g ai/ha, postemergence, visual injury on 0 to 100 scale (0 no effect, 100 complete control), approx. 10 d, read-out: Ryegrass, Italian plant response rating) | plant injury at 125 g/ha ([16]; 125 g ai/ha, postemergence, visual injury on 0 to 100 scale (0 no effect, 100 complete control), approx. 10 d, read-out: Wheat plant response rating)
40%: pest or weed control at 31 g/ha ([9]; Postemergence, 31 g ai/ha, visual injury after approx. 10 d, 0 to 100 scale, 0 no effect, 100 complete control, read-out: Plant response rating, Barnyardgrass)
30%: pest or weed control at 31 g/ha ([7]; Postemergence, 31 g ai/ha, visual injury after approx. 10 d, 0 to 100 scale, 0 no effect, 100 complete control, read-out: Plant response rating, Galium) | pest or weed control at 125 g/ha ([10]; 125 g ai/ha, postemergence, visual injury on 0 to 100 scale (0 no effect, 100 complete control), approx. 10 d, read-out: Blackgrass plant response rating) | pest or weed control at 125 g/ha ([14]; 125 g ai/ha, postemergence, visual injury on 0 to 100 scale (0 no effect, 100 complete control), approx. 10 d, read-out: Ragweed plant response rating)
75%: pest or weed control at 250 g/ha [17]
70%: pest or weed control at 125 g/ha [2, 21] | pest or weed control at 31 g/ha ([3]; 31 g ai/ha, Preemergence) | pest or weed control at 125 g/ha ([9]; 125 g ai/ha, postemergence, visual injury on 0 to 100 scale (0 no effect, 100 complete control), approx. 10 d, read-out: Barnyardgrass plant response rating)
0%: pest or weed control at 31 g/ha [1] | pest or weed control at 31 g/ha ([4]; 31 g ai/ha, Preemergence) | pest or weed control at 125 g/ha [4, 21] | pest or weed control at 31 g/ha ([5]; 31 g ai/ha, Preemergence) | pest or weed control at 31 g/ha ([6]; 31 g ai/ha, Preemergence) | pest or weed control at 125 g/ha [6, 21] | pest or weed control at 31 g/ha [8] | plant injury at 125 g/ha ([11]; 125 g ai/ha, postemergence, visual injury on 0 to 100 scale (0 no effect, 100 complete control), approx. 10 d, read-out: Corn plant response rating) | Corn plant response rating (crop injury, 0 = no effect, 100 = complete kill) at 31 g/ha ([11]; Postemergence, 31 g ai/ha, visual injury after approx. 10 d, 0 to 100 scale, 0 no effect, 100 complete control) | pest or weed control at 125 g/ha ([13]; 125 g ai/ha, postemergence, visual injury on 0 to 100 scale (0 no effect, 100 complete control), approx. 10 d, read-out: Pigweed plant response rating) | pest or weed control at 31 g/ha ([13]; Postemergence, 31 g ai/ha, visual injury after approx. 10 d, 0 to 100 scale, 0 no effect, 100 complete control, read-out: Plant response rating, Pigweed) | pest or weed control at 31 g/ha ([14]; Postemergence, 31 g ai/ha, visual injury after approx. 10 d, 0 to 100 scale, 0 no effect, 100 complete control, read-out: Plant response rating, Ragweed) | pest or weed control at 31 g/ha ([15]; Postemergence, 31 g ai/ha, visual injury after approx. 10 d, 0 to 100 scale, 0 no effect, 100 complete control, read-out: Plant response rating, Ryegrass, Italian) | plant injury at 31 g/ha ([16]; Postemergence, 31 g ai/ha, visual injury after approx. 10 d, 0 to 100 scale, 0 no effect, 100 complete control, read-out: Plant response rating, Wheat) | pest or weed control at 250 g/ha [20]
50%: pest or weed control at 125 g/ha ([7]; 125 g ai/ha, postemergence, visual injury on 0 to 100 scale (0 no effect, 100 complete control), approx. 10 d, read-out: Galium plant response rating) | pest or weed control at 31 g/ha ([12]; Postemergence, 31 g ai/ha, visual injury after approx. 10 d, 0 to 100 scale, 0 no effect, 100 complete control, read-out: Plant response rating, Foxtail, Giant)
90%: pest or weed control at 125 g/ha [3, 21] | pest or weed control at 250 g/ha [18]
80%: pest or weed control at 125 g/ha ([12]; 125 g ai/ha, postemergence, visual injury on 0 to 100 scale (0 no effect, 100 complete control), approx. 10 d, read-out: Foxtail, Giant plant response rating)
